The text below walks through data of patent publication US20190192697A1, “CHEMICAL PROBES OF LYSYL OXIDASK-LIKE 2 AND USES THEREOF” (PHARMAKEA, INC., priority 2016, published 2019).

For series [1], the target named is T1, LOXL2 (Homo sapiens, UniProt Q9Y4K0).
T1 sequence (Q9Y4K0 26-774): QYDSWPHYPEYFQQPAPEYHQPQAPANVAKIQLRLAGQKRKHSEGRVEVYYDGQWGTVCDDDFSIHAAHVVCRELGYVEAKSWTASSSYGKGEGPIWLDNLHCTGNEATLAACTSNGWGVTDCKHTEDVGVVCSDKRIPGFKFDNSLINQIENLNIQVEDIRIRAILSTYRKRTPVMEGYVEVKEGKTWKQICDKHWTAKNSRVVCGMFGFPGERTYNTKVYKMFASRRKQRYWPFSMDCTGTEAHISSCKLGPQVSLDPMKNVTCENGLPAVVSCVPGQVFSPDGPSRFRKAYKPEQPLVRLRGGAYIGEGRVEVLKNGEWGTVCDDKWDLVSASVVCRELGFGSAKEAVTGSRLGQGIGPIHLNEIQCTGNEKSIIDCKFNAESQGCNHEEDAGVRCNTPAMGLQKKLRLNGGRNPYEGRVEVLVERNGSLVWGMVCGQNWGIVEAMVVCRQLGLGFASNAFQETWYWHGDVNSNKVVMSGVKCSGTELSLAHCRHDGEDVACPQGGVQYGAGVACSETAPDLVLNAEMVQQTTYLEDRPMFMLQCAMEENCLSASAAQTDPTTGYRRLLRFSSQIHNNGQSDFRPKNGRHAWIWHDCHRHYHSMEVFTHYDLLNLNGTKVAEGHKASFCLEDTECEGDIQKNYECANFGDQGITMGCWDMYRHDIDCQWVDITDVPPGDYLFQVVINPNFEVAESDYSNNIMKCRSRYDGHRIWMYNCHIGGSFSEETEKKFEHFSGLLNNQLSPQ
The series is described as follows: LOXL2 target engagement in plasma of healthy volunteers after single oral dose (Western-based FG bead assay). It is filed as in vivo. Details: from tissue; host or cells: human plasma (donors / healthy volunteers). How it is done: Beads are resuspended to 10 mg/mL in Wash Buffer (20 mM Tris pH 8, 0.2% NP-40, 120 mM NaCl) and 1 mg beads (100 μL) are added to 1-10 mL of plasma, serum or other biological fluid containing LOXL2 and incubated at 37° C. for 0.5-2 hours with rotation. Beads are separated from plasma or other matrix using magnetic separation (for example, DynaMag™-15 Magnet) for 10 minutes at room temperature then the plasma/matrix carefully removed. The beads are resuspended in 1 mL Wash Buffer, vortexed and centrifuged at 4500×g for 5 minutes at room temperature to move all beads to the bottom of the tube. Beads are transferred to a 1.5 mL microfuge tube and washed 3 times with Wash Buffer using magnetic separation (for example, DynaMag™-2 Magnet). After the final wash, beads are resuspended in 40 μL of 1× BOLT® LDS Sample Buffer (Thermo Fisher, Waltham, Mass.) containing 1× BOLT® Sample Reducing Agent (Thermo Fisher, Waltham, Mass.) and incubated for 10 minutes at 90° C. Samples are centrifuged at 10,000×g for 1 minute then magnetically separated using a DynaMag™-2 Magnet for 2 minutes. 40 μL of each supernatant is loaded into one well of a 10 well 4-12% Bis-Tris Plus gel (Thermo Fisher, Waltham, Mass.) and the gels run for 45 minutes at 164 volts in 1×MES SDS Running Buffer (Thermo Fisher, Waltham, Mass.). Gels are transferred to nitrocellulose using iBlot (Thermo Fisher, Waltham, Mass.) according to the manufacturer's recommendation. Blots are incubated in Bullet Blocking One (Nacalai USA, Inc) for 5 minutes at room temperature then incubated overnight at 4° C. with an anti-LOXL2 antibody (for example, R&D Systems goat polyclonal) diluted in Signal Enhancer Solution 1 (Nacalai USA, Inc). Blots are rinsed quickly twice in PBS/0.1% tween-20 then washed 3 times for 10 minutes each in the PBS/tween solution. A secondary infrared dye (IRdye)-conjugated secondary antibody (LI-COR Biosciences, Lincoln, Neb.) diluted in Signal Enhancer 2 (Nacalai USA, Inc) is added to the blot and incubated for 45 minutes-1 hour at room temperature in the dark. Blots are washed as above with PBS/tween then rinsed in PBS before imaging with a LI-COR Odyssey (LI-COR, Lincoln, Neb.).
Healthy human subjects (male and female) were dosed with compound 2 in solution. […] Placebo data is the average of all the placebo subjects in the single dose study (n=10).

Series [2] deals with T1, LOXL2. The series is described as follows: Human LOXL2 amine oxidase activity assay (Amplex Red). It is filed as biochemical. Details: expressed in transfected cells; host or cells: CHO cells stably expressing human LOXL2; 10-20x concentrated conditioned media. As to conditions: concentrated conditioned media from CHO cells expressing human LOXL2; 2 h at 37° C. pre-incubation. The procedure: LOXL2 amine oxidase activity is evaluated by measuring Amplex Red fluorescence using 10-20× concentrated conditioned media from CHO cells stably expressing human LOXL2. To assay for amine oxidase activity, 10 μL of the concentrated conditioned media is incubated with 2 μL of test compound in DMSO and 73 μL Assay Buffer (50 mM Borate Buffer, pH8) for 2 h at 37° C. After the 2 h incubation, 5 μL of 10 mM 1,5-diaminopentane (DAP) diluted in Assay Buffer and 10 μL of Amplex Red Mix (8.5 μL Assay Buffer+0.5 μL of 10 mM Amplex Red+1 μL of 500 U/mL Horseradish Peroxidase) are added and the plate mixed and immediately placed on the FlexStaion for fluorescence measurements. Fluorescence is read in kinetic mode every 2 min for 1 hour at excitation=544 nm and emission=590 nm. The amine oxidase activity is calculated from the slope of the linear portion of the curve.

Series [3] is described as follows: Plasma drug concentration in healthy human subjects after single oral dose. It counts as in vivo. As to conditions: for concentration at 2 h / concentration at 24 h: both sexes, human, plasma, read-out: Ave plasma Cmpd 2 conc; for concentration at 2 h: 2 hour post-dose. How it is done: The amount of free/unbound LOXL2 was evaluated in 8 mL plasma from six healthy subjects at pre-dose or at 2, 24 or 48 hours after a single oral dose of Compound 1-13A and in two healthy subjects dosed with placebo. On average, the amount of free/unbound LOXL2 was decreased by approximately 60% at 2 hours post-dosing in the subjects receiving 150 mg of Compound 1-13a (see FIG. 7).
Healthy human subjects (male and female) were dosed with compound 2 in solution. Blood samples were drawn at regular intervals and the plasma isolated and analyzed for compound 1-13a concentration as well as LOXL2 target engagement. Placebo data is the average of all the placebo subjects in the single dose study (n=10).

The mark [4] stands for this setting: 150 mg single oral dose, 24 hour post-dose.
The mark [5] stands for this setting: 450 mg single oral dose, 24 hour post-dose.
[6] abbreviates: 1000 mg single oral dose, 24 hour post-dose.

The structures appear in SMILES notation. Counter-ions that a name gives are not always drawn. Like-named read-outs stand apart in the source and are kept apart here.

For `NCc1cc(Oc2cccc(C(=O)N3C[C@@H](O)[C@H](F)C3)c2)nc(C(F)(F)F)c1` [Compound 1-13a, (R,R)-trans-(3-((4-(Aminomethyl)-6-(trifluoromethyl)pyridin-2-yl)oxy)phenyl)(3-fluoro-4-hydroxypyrrolidin-1-yl)methanone hydrochloride], the “Ave plasma % TE” value in series [1] (150 mg single oral dose, 2 hour post-dose) is 62%; in series [1] (setting [4]) it was 20%; in series [1] (450 mg single oral dose, 2 hour post-dose), 78%; in series [1] (setting [5]) it was −13%; in series [1] (1000 mg single oral dose, 2 hour post-dose) it was 92%; in series [1] (setting [6]) it was 1%. Besides, the “average decrease of free/unbound LOXL2 in plasma” value in series [1] (150 mg single oral dose, 2 hours post-dosing, healthy subjects) is “approximately 60%”. Further, the IC50 is 905 nM in series [1] (plasma samples of healthy volunteers dosed with compound 1-13a, read-out: IC50 of % target engagement versus plasma concentration) and less than 300 nM in series [2]. In series [3] (setting [4]), the “Ave plasma Cmpd 2 conc” value is “BLOQ”. Besides, the concentration at 2 h in series [3] (150 mg single oral dose) was determined as 966 nM; in series [3] (450 mg single oral dose), 4380 nM; in series [3] (1000 mg single oral dose), 12900 nM. Besides, the concentration at 24 h was determined as 3.5 nM in series [3] (setting [5]) and 8 nM in series [3] (setting [6]).
